Laboratory results as given in patent US20250074891A1 (Anaxis Pharma Pty Ltd., priority 2021, published 2025).

Experiments:
U937 cells = experiment: Counter screen: cell viability without TSQ cocktail (off-target effect); set-up: species or system human; conditions: Homo sapiens, U-937, Table 38, read-out: Off-target effect (IC50 cell-based assay)
Procedure: Counter screen: In parallel, all compounds were tested for their ability to affect cell viability. The same U937 cells were treated with compound in DMSO without the TSQ cocktail. This counter screen enabled evaluation of off-target effects. In this case, cell viability was measured by CelltiterGlo.

[1] = test system: U937 human histiocytic leukemia cell line; experiment: Cellular assay: inhibition of TSQ induced necroptosis (CellTitre-Glo); conditions: Homo sapiens, U-937; U937 cells, TSQ cocktail, 48 hours, Table 38; read-out: Inhibition of TSQ-induced necroptosis (IC50 cell-based assay)
How it was run: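 U937 cells (20,000/well) pre-dosed with compound (10-point, 1:3 from 36 μM, 0.3% DMSO), then TSQ (hTNF-Fc 100 ng/ml, Smac mimetic 500 nM, Q-VD-OPh 10 μM) for 48 h at 37 °C. Viability by CellTiter-Glo luminescence, normalised to DMSO (100%) and DMSO+TSQ (0%); IC50 from 4-parameter fit.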

MLKL (full length) = MLKL (full length) (Homo sapiens (Human), UniProt Q8NB16); experiment: KINOMEscan binding assay, MLKL (full length); conditions: Table 36
MLKL (full length), sequence (Q8NB16 whole entry): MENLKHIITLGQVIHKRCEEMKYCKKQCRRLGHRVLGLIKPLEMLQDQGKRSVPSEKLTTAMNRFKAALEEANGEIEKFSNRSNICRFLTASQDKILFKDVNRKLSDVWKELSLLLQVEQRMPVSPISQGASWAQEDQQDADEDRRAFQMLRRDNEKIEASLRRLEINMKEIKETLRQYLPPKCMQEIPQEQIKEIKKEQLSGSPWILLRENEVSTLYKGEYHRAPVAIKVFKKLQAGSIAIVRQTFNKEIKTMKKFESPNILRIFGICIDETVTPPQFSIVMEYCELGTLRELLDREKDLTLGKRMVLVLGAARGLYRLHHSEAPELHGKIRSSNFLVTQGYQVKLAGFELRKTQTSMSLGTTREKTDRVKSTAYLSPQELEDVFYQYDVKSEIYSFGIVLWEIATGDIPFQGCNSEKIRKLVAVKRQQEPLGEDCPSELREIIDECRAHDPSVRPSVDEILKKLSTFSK
Procedure: Kinase assays. For most assays, kinase-tagged T7 phage strains were grown in parallel in 24-well blocks in an E. coli host derived from the BL21 strain. E. coli were grown to log-phase and infected with T7 phage from a frozen stock (multiplicity of infection=0.4) and incubated with shaking at 32° C. until lysis (90-150 minutes).
The Hill Slope was set to −1.

endogenous MLKL in U937 = endogenous MLKL in U937 (Homo sapiens (Human), UniProt Q8NB16); experiment: Degradation assay: degradation of endogenous MLKL in human cells (Western blot); conditions: 24 h incubation, read-out: Degradation of endogenous MLKL in U937 (DC50 cell-based assay in μM)
endogenous MLKL in U937, sequence (Q8NB16 whole entry): as above
Procedure: DEGRADATION ASSAY: Screening Compounds Procedure to Evaluate the Activity of Compounds in Degrading Endogenous MLKL in Human Cell
The human monocyte cell line (U937) was seeded on the day of the experiment in a 24-well plate at a cell density of 5*10^5 cells per well in a volume of 0.5 mL per well.
The compound was diluted in DMSO with a starting concentration of 10 mM and titrated stepwise with a dilution of 1:5. 0.5 μL of the compound dilution was added to the appropriate well to achieve a final concentration of 10; 2; 0.4; 0.08 and 0.016 μM. A DMSO only well was included as control.
The cells were incubated for 24 h in the presence of the compound at 37° C. and 10% CO2.
After the 24 h incubation period, the medium was removed and cells washed with 0.5 mL PBS. The cells were then lysed directly in 60 μL of 1×SDS gel loading buffer.
The cell lysate was heat-denatured at […] for 10 min. 10 μL of lysate per well were run on 18-well 4-15% Criterion TGX stain free gels (BIO-RAD). The proteins were then transferred onto nitrocellulose membrane with a wet transfer protocol in the Criterion Blotter (BIO-RAD).
Membranes were blocked with 5% skim milk in TBST. Primary antibody against MLKL (clone 3H1, MABC604 Merck) was used at 1:2000 dilution in TBST with 1% BSA and left shaking over night at 4° C. After washes with TBST, the membranes were incubated with goat anti-rat IgG HRP-conjugated antibody (Southern Biotech) in 1% skim milk TBST at 1:10000 dilution for 1 h at room temperature. After TBST washes the bands were imaged on the ChemiDoc MP Imaging Systm (BIO-RAD) with Immobilion Western Chemiluminescent HRP Substrate Forte (Millipore). The loading control GAPDH was probed for with rabbit anti-GAPDH (CST 14C10) at 1:2000 dilution in 1% BSA TBST over night at 4° C. TBST washes were followed by incubation with goat anti-rabbit IgG HRP-conjugated antibody (Southern Biotech) in 1% skim milk TBST at 1:10000 dilution for 1 h at room temperature followed by TBST washes. The signal was detected as described above.
The band intensity was measured in the ImageLab Software (BIO-RAD) and the MLKL values adjusted for loading with GAPDH. The percentage of degradation was calculated by normalizing the compound treated values to the DMSO only control.

SMILES	IC50 (U937 cells) [nM]	IC50 [1] [nM]	Kd (MLKL (full length)) [nM]	DC50 (endogenous MLKL in U937) [µM]
CCS(=O)(=O)Nc1ccc(-c2n[nH]c(Nc3ccc(C(=O)OCCCC(=O)N[C@H](C(=O)N4C[C@H](O)C[C@H]4C(=O)NCc4ccc(-c5scnc5C)cc4)C(C)(C)C)cn3)c2C(N)=O)cc1O[C@@H](C)c1ccc(F)cc1 [Compound 1043, 3-{[(2S)-1-[(2S,4R)-4-hydroxy-2-({[4-(4-methyl-1,3-thiazol-5-yl)phenyl]methyl}carbamoyl)pyrrolidin-1-yl]-3,3-dimethyl-1-oxobutan-2-yl]carbamoyl}propyl 6-[(4-carbamoyl-3-{4-ethanesulfonamido-3-[(1S)-1-(4-fluorophenyl)ethoxy]phenyl}-1H-pyrazol-5-yl)amino]pyridine-3-carboxylate]	> 10000	< 1000	< 10	< 1
Cc1ncsc1-c1ccc(CNC(=O)[C@@H]2C[C@@H](O)CN2C(=O)[C@@H](NC(=O)CCCCOc2ccc(Nc3[nH]nc(-c4ccc(NS(=O)(=O)C(F)F)cc4)c3C(N)=O)nc2)C(C)(C)C)cc1 [Compound 1021, 3-[4-(difluoromethanesulfonamido)phenyl]-5-{[5-(4-{[(2S)-1-[(2S,4R)-4-hydroxy-2-({[4-(4-methyl-1,3-thiazol-5-yl)phenyl]methyl}carbamoyl)pyrrolidin-1-yl]-3,3-dimethyl-1-oxobutan-2-yl]carbamoyl}butoxy)pyridin-2-yl]amino}-1H-pyrazole-4-carboxamide]	> 10000	< 1000	< 10	1 to 10
CCS(=O)(=O)Nc1ccc(-c2n[nH]c(Nc3cnc(OCCCCC(=O)N[C@H](C(=O)N4C[C@H](O)C[C@H]4C(=O)NCc4ccc(-c5scnc5C)cc4)C(C)(C)C)cn3)c2C(N)=O)cc1OCc1ccc(F)cc1 [Compound 1023, 3-{4-ethanesulfonamido-3-[(4-fluorophenyl)methoxy]phenyl}-5-{[5-(4-{[(2S)-1-[(2S,4R)-4-hydroxy-2-({[4-(4-methyl-1,3-thiazol-5-yl)phenyl]methyl}carbamoyl)pyrrolidin-1-yl]-3,3-dimethyl-1-oxobutan-2-yl]carbamoyl}butoxy)pyrazin-2-yl]amino}-1H-pyrazole-4-carboxamide]	> 10000	< 1000	< 10	< 1
CCS(=O)(=O)Nc1ccc(-c2n[nH]c(Nc3ccc(OCCCCC(=O)N[C@H](C(=O)N4C[C@H](O)C[C@H]4C(=O)NCc4ccc(-c5scnc5C)cc4)C(C)(C)C)cn3)c2C(N)=O)cc1 [Compound 1019, 3-(4-ethanesulfonamidophenyl)-5-{[5-(4-{[(2S)-1-[(2S,4R)-4-hydroxy-2-({[4-(4-methyl-1,3-thiazol-5-yl)phenyl]methyl}carbamoyl)pyrrolidin-1-yl]-3,3-dimethyl-1-oxobutan-2-yl]carbamoyl}butoxy)pyridin-2-yl]amino}-1H-pyrazole-4-carboxamide]	> 10000	< 1000	< 10	< 1
CCS(=O)(=O)Nc1ccc(-c2n[nH]c(Nc3ccnc(OCCOCCOCCOCCOCCOCCNC(=O)COc4cccc5c4C(=O)N(C4CCC(=O)NC4=O)C5=O)c3)c2C(N)=O)cc1 (stereo not shown) [Compound 1005, 5-[(2-{[17-(2-{[2-(2,6-dioxopiperidin-3-yl)-1,3-dioxo-2,3-dihydro-1H-isoindol-4-yl]oxy}acetamido)-3,6,9,12,15-pentaoxaheptadecan-1-yl]oxy}pyridin-4-yl)amino]-3-(4-ethanes-ulfonamidophenyl)-1H-pyrazole-4-carboxamide]	> 10000	> 10000	< 10	1 to 10
Cc1ncsc1-c1ccc(CNC(=O)[C@@H]2C[C@@H](O)CN2C(=O)[C@@H](NC(=O)CCCCOc2ccc(Nc3[nH]nc(-c4ccc(NS(=O)(=O)CC(F)(F)F)cc4)c3C(N)=O)nc2)C(C)(C)C)cc1 [Compound 1020, 5-{[5-(4-{[(2S)-1-[(2S,4R)-4-hydroxy-2-({[4-(4-methyl-1,3-thiazol-5-yl)phenyl]methyl}carbamoyl)pyrrolidin-1-yl]-3,3-dimethyl-1-oxobutan-2-yl]carbamoyl}butoxy)pyridin-2-yl]amino}-3-[4-(2,2,2-trifluoroethanesulfonamido)phenyl]-1H-pyrazole-4-carboxamide]	> 10000	< 1000	< 10	< 1
CCS(=O)(=O)Nc1ccc(-c2n[nH]c(Nc3ccc(C(=O)OCC(=O)N[C@H](C(=O)N4C[C@H](O)C[C@H]4C(=O)NCc4ccc(-c5scnc5C)cc4)C(C)(C)C)cn3)c2C(N)=O)cc1O[C@@H](C)c1ccc(F)cc1 [Compound 1041, {[(2S)-1-[(2S,4R)-4-hydroxy-2-({[4-(4-methyl-1,3-thiazol-5-yl)phenyl]methyl}carbamoyl)pyrrolidin-1-yl]-3,3-dimethyl-1-oxobutan-2-yl]carbamoyl}methyl 6-[(4-carbamoyl-3-{4-ethanesulfonamido-3-[(1S)-1-(4-fluorophenyl)ethoxy]phenyl}-1H-pyrazol-5-yl)amino]pyridine-3-carboxylate]	> 10000	< 1000	< 10	< 1
Cc1ncsc1-c1ccc(CNC(=O)[C@@H]2C[C@@H](O)CN2C(=O)[C@@H](NC(=O)c2ccc(Cn3ccc(Nc4[nH]nc(-c5ccc(NS(=O)(=O)C(F)F)c(O[C@@H](C)c6ccc(F)cc6)c5)c4C(N)=O)n3)cc2)C(C)(C)C)cc1 [Compound 1045, 3-[4-(difluoromethanesulfonamido)-3-[(1S)-1-(4-fluorophenyl)ethoxy]phenyl]-5-({1-[(4-{[(2S)-1-[(2S,4R)-4-hydroxy-2-({[4-(4-methyl-1,3-thiazol-5-yl)phenyl]methyl}carbamoyl)pyrrolidin-1-yl]-3,3-dimethyl-1-oxobutan-2-yl]carbamoyl}phenyl)methyl]-1H-pyrazol-3-yl}amino)-1H-pyrazole-4-carboxamide]	> 10000	< 1000	< 10	< 1
Cc1ncsc1-c1ccc(CNC(=O)[C@@H]2C[C@@H](O)CN2C(=O)[C@@H](NC(=O)CCCCOC(=O)c2ccc(Nc3[nH]nc(-c4ccc(NS(=O)(=O)C(F)F)c(O[C@@H](C)c5ccc(F)cc5)c4)c3C(N)=O)nc2)C(C)(C)C)cc1 [Compound 1051, 4-{[(2S)-1-[(2S,4R)-4-hydroxy-2-({[4-(4-methyl-1,3-thiazol-5-yl)phenyl]methyl}carbamoyl)pyrrolidin-1-yl]-3,3-dimethyl-1-oxobutan-2-yl]carbamoyl}butyl 6-({4-carbamoyl-3-[4-(difluoromethanesulfonamido)-3-[(1S)-1-(4-fluorophenyl)ethoxy]phenyl]-1H-pyrazol-5-yl}amino)pyridine-3-carboxylate]	> 10000	1000 to 10000	10 to 1000	1 to 10
CCS(=O)(=O)Nc1ccc(-c2n[nH]c(Nc3ccnc(OCCOCCOCCOCCOCCNC(=O)COc4cccc5c4C(=O)N(C4CCC(=O)NC4=O)C5=O)c3)c2C(N)=O)cc1 (stereo not shown) [Compound 1001, 5-[(2-{[14-(2-{[2-(2,6-dioxopiperidin-3-yl)-1,3-dioxo-2,3-dihydro-1H-isoindol-4-yl]oxy}acetamido)-3,6,9,12-tetraoxatetradecan-1-yl]oxy}pyridin-4-yl)amino]-3-(4-ethanesulfonamidophenyl)-1H-pyrazole-4-carboxamide]	> 10000	> 10000	< 10	1 to 10
